Assay results reported in patent US10617679B2, “Deuterated compounds and medical uses thereof” (JINGLUWEIDAI INFORMATION CONSULTING SERVICE (BEIJING) CO. …, priority 2016, dated 2020).

What was measured:
rat formalin model = experiment: Analgesic effects of intragastric administration in a rat formalin model; format: in vivo, SD rats; conditions: mean ± SD; for Reaction time for phase I: licking time 0-5 min after formalin; for Reaction time for Phase II: licking time 15-30 min after formalin
Procedure: SD rats (male, weight 160-180 g) were randomly divided into groups with 6 rats in each group. After the rats were intragastrically administered different doses separately, they were placed in PVC observation boxes for habituation. After 30 min, the rats were injected subcutaneously with 20 μL of 2.7% formalin solution into the plantar surface of the left hind paws, and quickly put back in the PVC observation boxes for observation. The length of time the rats spent licking the injected-formalin paws at the early response (0-5 min, phase I) and the late response (15-30 min, Phase II) was recorded, and the analgesic activities of the test compounds were evaluated according to the length of time the rats spent licking during the period of observation. The experimental data were expressed as mean±standard deviation. The shorter the licking time, the better the analgesic effect of the compound.

[1] = system: rat chronic sciatic nerve compression neuralgia model; experiment: Analgesic effects of intragastric administration in a rat chronic sciatic nerve compression neuralgia model; format: in vivo, SD rats; conditions: pain threshold 1 hour after administration
Procedure: SD rats (male, weight 160-180 g) were anesthetized using sodium pentobarbital (40 mg/kg), of which the sciatic nerves were separated in the middle segment of the right hind limbs. In the anterior segment of the sciatic nerve to be bifurcated, the sciatic nerve was separated from the surrounding tissue using a sterile glass hook. Four rings were loosely ligated with sterile chrome gut (No. 4, 0.15 mm in diameter) by an interval of 1 to 2 mm. Topically sprinkled with penicillin powder. The muscle tissue and skin were sutured. The rats were placed in a cage with cork dust. In the sham surgery group, the sciatic nerve was only exposed, and the other treatments were the same as described above. The rats after surgery were placed in a metal cage. […] The weight of the filament was recorded and set to be the threshold (in g). Meanwhile, the number of foot-lifting response to the 10 stimulations of the fiber filaments of different weights was recorded, and the highest threshold was set at 26 g.
5-6 rats in each group were intragastrically administered and the pain thresholds were measured 1 hour after administration. Statistical analysis of the thresholds was performed using non-parametric Wilcoxon 2-Sample Test and Kruskal-Wallis Test, and the data was analyzed with SASS data processing software. Analgesic percent (%)=(pain threshold after drug treatment−pain threshold before drug treatment)/(maximal analgesia threshold−pain threshold before drug treatment)[…].

[2] = system: oxycodone-induced place preference in rats; experiment: Inhibition of oxycodone-induced place preference in rats; format: in vivo, SD rats; conditions: day 10, within 15 minutes
Procedure: SD rats (male, weight 160-180 g) were placed in conditioned place preference (CPP) training boxes, where the partition door between the boxes was open. Time the rats spent in each of the boxes was recorded within 15 min in order to determine the natural tendency of the rats. The rats were then randomly divided into groups with 10 rats in each group according to the amount of time spent in the white box. The white box was a drug box, and the black box was a box with the absence of the drug. After intragastric administration with a test compound for 40 minutes, the rats were injected subcutaneously with oxycodone (2.5 mg/kg, s.c.) or saline, and immediately placed in the white box or the black box to be trained for 45 minutes, once a day for 9 consecutive days. On the 10th day, the rats were placed in the training boxes with the partition door open. The time the rats spent in the white box was recorded within 15 minutes to evaluate effects on place preference in the rats.

blood pressure in rats = experiment: Effects on blood pressure in rats; format: in vivo, SD rats
Procedure: (§1) SD rats (male, weight 160-180 g) were fasted for 12 hours before administration but had free access to drinking water. The rats were randomly divided into groups. They were anesthetized with an intraperitoneal injection of 50-60 mg/kg dose of sodium pentobarbital. Each rat was fixed on the back on the surgical table. The skin was cut from the center of the neck, and an incision of about 2.5 cm was made. The subcutaneous tissue and the median muscle were separated; the trachea was fully exposed; and the endotracheal intubation was performed. The subcutaneous tissue was separated from front to back on the right side; the right common carotid artery, the vagus nerve and the sympathetic nerve were exposed; and the carotid artery cannulation was performed. Finally, the endotracheal tube and the carotid artery cannula were respectively connected to a respiration transducer and a blood pressure transducer, and then connected to a multifunctional physiological recorder. At 30 minutes after surgery, the rats were intragastrically administrated. Heart rate and blood pressure were measured at different time points after administration.

heart rate in rats = experiment: Effects on heart rate in rats; format: in vivo, SD rats
Procedure: as §1

Wistar rats = experiment: Evaluation of subacute toxicity (14 days, intragastric); format: in vivo; conditions: 40 mg/kg intragastric once a day for 14 days; for ALT / AST: rat; for histopathological examination of liver / plasma ALT and AST versus control group: result in words
Procedure: Male Wistar rats were randomly divided into groups with 10 rats in each group and weighed. A certain concentration of a test sample was ground and suspended in a 0.5% sodium carboxymethyl cellulose solution. The sodium carboxymethyl cellulose suspension containing 40 mg/kg of the test compound and a blank sodium carboxymethyl cellulose suspension as a control were intragastrically administered, once a day for 14 consecutive days. After the last administration, the rats were fasted but had free access to drinking water for 12 hours, and then anesthetized. Their blood samples were obtained from the abdominal aortas. According to SOPB093 “Standard Operating Procedures for Serum Preparation” in National Beijing Center for Drug Safety Evaluation and Research, serum was prepared for the determination of blood biochemical and immunological indicators; according to SOPB032 “Preparation of vacuum tubes with EDTA anticoagulation”, EDTA anticoagulation was prepared for the general blood routine tests.

[3] = test dose 10 mg/kg intragastric + oxycodone 2.5 mg/kg s.c.
[4] = test dose 20 mg/kg intragastric + oxycodone 2.5 mg/kg s.c.
[5] = 20 mg/kg intragastric, time point 0
[6] = 20 mg/kg intragastric, time point 30
[7] = 20 mg/kg intragastric, time point 60
[8] = 20 mg/kg intragastric, time point 90
[9] = 20 mg/kg intragastric, time point 120
[10] = 20 mg/kg intragastric, time point 180
[11] = 40 mg/kg intragastric, time point 0
[12] = 40 mg/kg intragastric, time point 30
[13] = 40 mg/kg intragastric, time point 60
[14] = 40 mg/kg intragastric, time point 90
[15] = 40 mg/kg intragastric, time point 120
[16] = 40 mg/kg intragastric, time point 180

| SMILES | Reaction time for phase I (rat formalin model; 20 mg/kg intragastric) [s] | Reaction time for Phase II (rat formalin model; 20 mg/kg intragastric) [s] | Reaction time for phase I (rat formalin model; 40 mg/kg intragastric) [s] | Reaction time for Phase II (rat formalin model; 40 mg/kg intragastric) [s] | Analgesic percent ([1]; 20 mg/kg intragastric) [%] | Analgesic percent ([1]; 40 mg/kg intragastric) [%] | Time spent in the drug box (Mean ± S) [2, 3] [s] | Time spent in the drug box (Mean ± S) [2, 4] [s] | Blood pressure (blood pressure in rats; [5]) [mmHg] | Blood pressure (blood pressure in rats; [6]) [mmHg] | Blood pressure (blood pressure in rats; [7]) [mmHg] | Blood pressure (blood pressure in rats; [8]) [mmHg] | Blood pressure (blood pressure in rats; [9]) [mmHg] | Blood pressure (blood pressure in rats; [10]) [mmHg] | Blood pressure (blood pressure in rats; [11]) [mmHg] | Blood pressure (blood pressure in rats; [12]) [mmHg] | Blood pressure (blood pressure in rats; [13]) [mmHg] | Blood pressure (blood pressure in rats; [14]) [mmHg] | Blood pressure (blood pressure in rats; [15]) [mmHg] | Blood pressure (blood pressure in rats; [16]) [mmHg] | also measured |
| --- | --- | --- | --- | --- | --- | --- | --- | --- | --- | --- | --- | --- | --- | --- | --- | --- | --- | --- | --- | --- | --- |
| [2H]C([2H])([2H])Oc1c(OC)ccc2c1CN1CCc3cc(OC)c(OC)cc3[C@@H]1C2 [Formula I1, (13a S)-2,3,10-trimethoxy-9-[(trideutero)-methoxy]-6,8,13,13a-tetrahydro-5H-isoquinolino[2,1-b]isoquinoline] | 82.4 ± 33.2 | 194.0 ± 35.7 | 42.6 ± 45.0 | 92.7 ± 25.1 |  |  |  |  |  |  |  |  |  |  |  |  |  |  |  |  |  |
| [2H]C([2H])([2H])Oc1ccc2c(c1OC)CN1CCc3cc(OC)c(OC)cc3[C@@H]1C2 [Formula I2, (13a S)-2,3,9-trimethoxy-10-[(trideutero)-methoxy]-6,8,13,13a-tetrahydro-5H-isoquinolino[2,1-b]isoquinoline] | 82.1 ± 16.3 | 64.5 ± 19.5 | 41.0 ± 10.7 | 46.5 ± 16.0 | 59.00 | 68.86 | 193.94 ± 44.3 | 140.59 ± 28.52 | 113.1 ± 15.7 | 113.4 ± 17.3 | 101.5 ± 27.46 | 102.25 ± 21.6 | 113.1 ± 14.2 | 102.3 ± 7.6 | 114.6 ± 19.4 | 95.5 ± 15.9 | 82.5 ± 19.8 | 92.8 ± 18.6 | 110.5 ± 15.5 | 100.0 ± 17.8 | Heart rate (heart rate in rats; [5]): 400.8 ± 32.1 BTM; Heart rate (heart rate in rats; [6]): 378.3 ± 30.3 BTM; Heart rate (heart rate in rats; [7]): 384.6 ± 48.2 BTM; Heart rate (heart rate in rats; [8]): 388.0 ± 21.4 BTM; Heart rate (heart rate in rats; [9]): 402.5 ± 59.3 BTM; Heart rate (heart rate in rats; [10]): 407.0 ± 36.5 BTM; Heart rate (heart rate in rats; [11]): 409.2 ± 41.7 BTM; Heart rate (heart rate in rats; [12]): 390.7 ± 41.7 BTM; Heart rate (heart rate in rats; [13]): 319.7 ± 57.2 BTM; Heart rate (heart rate in rats; [14]): 353.8 ± 66.7 BTM; Heart rate (heart rate in rats; [15]): 378.0 ± 47.6 BTM; Heart rate (heart rate in rats; [16]): 407.0 ± 42.6 BTM; ALT (Wistar rats): 172.8 ± 37.5 U/L; AST (Wistar rats): 195.0 ± 32.1 U/L; histopathological examination of liver (Wistar rats): vacuolar degeneration of hepatocytes; plasma ALT and AST versus control group (Wistar rats): significant increase |
| [2H]C([2H])([2H])Oc1cc2c(cc1OC)CCN1Cc3c(ccc(OC)c3OC)C[C@@H]21 [Formula I3, (13a S)-3,9,10-trimethoxy-2-[(trideutero)-methoxy]-6,8,13,13a-tetrahydro-5H-isoquinolino[2,1-b]isoquinoline] | 79.6 ± 31.3 | 126.3 ± 29.6 | 45.1 ± 29.4 | 72.3 ± 37.8 | 44.80 | 68.67 |  |  |  |  |  |  |  |  |  |  |  |  |  |  |  |
| [2H]C([2H])([2H])Oc1cc2c(cc1OC)[C@@H]1Cc3ccc(OC)c(OC)c3CN1CC2 [Formula I4, (13a S)-2,9,10-trimethoxy-3-[(trideutero)-methoxy]-6,8,13,13a-tetrahydro-5H-isoquinolino[2,1-b]isoquinoline] | 90.3 ± 29.0 | 151.2 ± 31.6 | 61.5 ± 36.6 | 74.3 ± 38.0 |  |  |  |  |  |  |  |  |  |  |  |  |  |  |  |  |  |
| [2H]C([2H])([2H])Oc1cc2c(cc1OC)CCN1Cc3c(ccc(OC)c3OC([2H])([2H])[2H])C[C@@H]21 [Formula I5, (13a S)-3,10-dimethoxy-2,9-di-[(trideutero)-methoxy]-6,8,13,13a-tetrahydro-5H-isoquinolino[2,1-b]isoquinoline] | 85.8 ± 28.0 | 112.7 ± 29.2 | 53.4 ± 23.5 | 66.5 ± 27.6 | 39.40 | 67.56 |  |  |  |  |  |  |  |  |  |  |  |  |  |  |  |
| [2H]C([2H])([2H])Oc1cc2c(cc1OC)CCN1Cc3c(ccc(OC([2H])([2H])[2H])c3OC)C[C@@H]21 [Formula I6, (13a S)-3,9-dimethoxy-2,10-di-[(trideutero)-methoxy]-6,8,13,13a-tetrahydro-5H-isoquinolino[2,1-b]isoquinoline] | 41.9 ± 9.2 | 66.7 ± 8.7 | 38.6 ± 9.4 | 40.3 ± 9.0 | 63.80 | 69.12 | 183.27 ± 33.97 | 129.35 ± 23.66 | 115.6 ± 21.9 | 108.5 ± 10.75 | 102.0 ± 11.4 | 104.7 ± 10.70 | 110.5 ± 6.8 | 106.5 ± 13.7 | 111.0 ± 21.4 | 95.4 ± 14.5 | 83.5 ± 10.30 | 85.2 ± 8.0 | 110.00 ± 11.6 | 109.5 ± 14.1 | Heart rate (heart rate in rats; [5]): 407.1 ± 43.4 BTM; Heart rate (heart rate in rats; [6]): 400.2 ± 29.4 BTM; Heart rate (heart rate in rats; [7]): 401.0 ± 28.47 BTM; Heart rate (heart rate in rats; [8]): 403.0 ± 30.2 BTM; Heart rate (heart rate in rats; [9]): 396.7 ± 36.3 BTM; Heart rate (heart rate in rats; [10]): 402.5 ± 28.8 BTM; Heart rate (heart rate in rats; [11]): 414.1 ± 37.6 BTM; Heart rate (heart rate in rats; [12]): 375.8 ± 29.3 BTM; Heart rate (heart rate in rats; [13]): 362.8 ± 20.7 BTM; Heart rate (heart rate in rats; [14]): 367.2 ± 27.0 BTM; Heart rate (heart rate in rats; [15]): 393.5 ± 34.6 BTM; Heart rate (heart rate in rats; [16]): 380.8 ± 30.5 BTM; ALT (Wistar rats): 165.3 ± 38.0 U/L; AST (Wistar rats): 251.8 ± 32.0 U/L; histopathological examination of liver (Wistar rats): vacuolar degeneration of hepatocytes; plasma ALT and AST versus control group (Wistar rats): significant increase |
